# Results reported in patent publication EP1235833B1 (GLAXO GROUP LIMITED, priority 1999, dated 2001).
# Experiment: Acid stability: acid-mediated hydrolytic decomposition, simulated stomach conditions, HPLC
# Assay type: physicochemical
# Conditions: for Compound left (%): 0.3 mg/mL in dilute hydrochloric acid at pH 1, 25°C
# Description: Compounds were tested for their stability towards acid-mediated hydrolytic decomposition employing a test designed to simulate stomach conditions. Each compound was incubated at an initial concentration of 0.3 mg/mL in dilute hydrochloric acid at pH 1 for 24 hours at 25°C. HPLC was run immediately for t=0 and at intervals up to approximately 24 hours. The results for compounds of Example 2, part b, Example 9, and for comparative phosphoramidates of 2',3'-dideoxy-adenosine (Compound 1093) and 2',3'-didehydro-2',3'-dideoxy-adenosine (Compound 1001), described in W096/29336A, are given in the table below.
smiles,measurement,setting,value
COC(=O)C(C)(C)NP(=O)(OC[C@@H]1C=C[C@H](n2cnc3c(NCC4CC4)nc(N)nc32)C1)Oc1ccccc1 (relative stereo) [Example 9],Compound left (%),Time 0 hr,100%
same,Compound left (%),Time 13 hr,96%
same,Compound left (%),Time 24 hr,94%
same,Acid stability in words,"after 24 hours, dilute hydrochloric acid at pH 1, 25°C",remained intact
